In ChEMBL document CHEMBL5154653, “The discovery of 1, 3-diamino-7H-pyrrol[3, 2-f]quinazoline compounds as potent antimicrobial antifolates” (Eur J Med Chem, 2022):
pIC50, pKd: −log10 of the molar value. Values belong to the compound of their own block, whether it stands above or below them. The source made the active and inactive calls. No cut-off for these calls is given here.

Experiments:
Acinetobacter baumannii [1] = test: Antibacterial activity against Acinetobacter baumannii ATCC 19606 assessed as reduction in microbial growth after 16 to 18 hrs by microbroth dilution method; format: functional; settings: time 16-18 hrs
Escherichia coli [2] = test: Antibacterial activity against Escherichia coli ATCC 25922 assessed as reduction in microbial growth after 16 to 18 hrs by microbroth dilution method; format: functional; settings: time 16-18 hrs
Escherichia coli [3] = test: Inhibition of Escherichia coli C-terminal hexahistidine tagged DHFR at 5 uM incubated for 5 mins in presence of NADPH by measuring oxidation of NADPH to NADP+
Klebsiella pneumoniae [4] = test: Antibacterial activity against Klebsiella pneumoniae ATCC 700603 assessed as reduction in microbial growth after 16 to 18 hrs by microbroth dilution method; format: functional; settings: time 16-18 hrs
Escherichia coli [5] = test: Bactericidal activity against Escherichia coli ATCC 25922 at 30 pg/ml measured for 24 hrs in presence of SMZ by time-kill assay; format: functional, organism-based
Thymidylate synthase = Thymidylate synthase (Escherichia coli K-12, UniProt P0A884); test: Inhibition of Escherichia coli N-terminal hexahstidine-tagged TS by steady-state kinetic analysis
Escherichia coli [6] = test: In vivo Antibacterial activity against Escherichia coli ATCC 25922 in septicemia ICR mouse model assessed as reduction in bacterial load at 50 mg/kg, iv measured after 2 to 4 hrs; format: functional; settings: time 2-4 hrs
Klebsiella pneumoniae [7] = test: Antibacterial activity against Klebsiella pneumoniae CCPM(A)-081018 assessed as reduction in microbial growth after 16 to 18 hrs by microbroth dilution method; format: functional; settings: time 16-18 hrs
Escherichia coli [8] = test: Antibacterial activity against ESBL-producing Escherichia coli CCPM(A)-071030 assessed as reduction in microbial growth after 16 to 18 hrs by microbroth dilution method; format: functional; settings: time 16-18 hrs
Escherichia coli [9] = test: Synergistic antibacterial activity against Escherichia coli ATCC 25922 assessed as fractional inhibitory concentration index at 30 pg/ml measured for 24 hrs in presence of SMZ by microdilution checkerboard assay; format: functional
Acinetobacter baumannii [10] = test: Antibacterial activity against Acinetobacter baumannii CCPM(A)-100946 assessed as reduction in microbial growth after 16 to 18 hrs by microbroth dilution method; format: functional; settings: time 16-18 hrs
Escherichia coli [11] = test: Bactericidal activity against Escherichia coli ATCC 25922 assessed as reductions in colony forming unit at 8 times MIC measured for 24 hrs by time-kill assay; format: functional
Acinetobacter baumannii [12] = test: Antibacterial activity against multi drug resistant Acinetobacter baumannii CCPM(A)-100902 assessed as reduction in microbial growth after 16 to 18 hrs by microbroth dilution method; format: functional; settings: time 16-18 hrs
Escherichia coli [13] = test: In vivo Antibacterial activity against Escherichia coli ATCC 25922 in septicemia ICR mouse model assessed as increase in mouse survival time administered iv measured after 14 hrs; format: functional, organism-based; settings: dose 7.5-15 mg/kg, DDE = dose-dependent effect
Escherichia coli [14] = test: Binding affinity to Escherichia coli C-terminal hexahistidine tagged DHFR assessed as change in entropy at 0.2 mM by isothermal titration calorimetry method
Escherichia coli [15] = test: Bactericidal activity against Escherichia coli ATCC 25922 at 0.5 to 8 times MIC by counting bacterial colonies upto 24 hrs time-kill assay; format: functional, organism-based; settings: DDE = dose-dependent effect
[16] = biological target: Thymidylate synthase (Escherichia coli K-12) (UniProt P0A884); test: Inhibition of Escherichia coli N-terminal hexahstidine-tagged TS at 500 uM by steady-state kinetic analysis
Klebsiella pneumoniae [17] = test: Antibacterial activity against ESBL-producing Klebsiella pneumoniae ATCC 700603 assessed as reduction in microbial growth after 16 to 18 hrs by microbroth dilution method; format: functional; settings: time 16-18 hrs
Acinetobacter baumannii [18] = test: Antibacterial activity against multi drug resistant Acinetobacter baumannii CCPM(A)-100903 assessed as reduction in microbial growth after 16 to 18 hrs by microbroth dilution method; format: functional; settings: time 16-18 hrs
Escherichia coli [19] = test: Antibacterial activity against ESBL-producing Escherichia coli CCPM(A)-0715142 assessed as reduction in microbial growth after 16 to 18 hrs by microbroth dilution method; format: functional; settings: time 16-18 hrs
Staphylococcus aureus [20] = test: Antibacterial activity against methicillin-resistant Staphylococcus aureus ATCC 43300 assessed as reduction in microbial growth after 16 to 18 hrs by microbroth dilution method; format: functional; settings: time 16-18 hrs
[21] = biological target: Thymidylate synthase (Escherichia coli K-12) (UniProt P0A884); test: Binding affinity to Escherichia coli N-terminal hexahistidine tagged TS assessed as change in gibbs free energy at 0.2 mM by isothermal titration calorimetry method
Acinetobacter baumannii [22] = test: Antibacterial activity against multi drug resistant Acinetobacter baumannii CCPM(A)-1100708 assessed as reduction in microbial growth after 16 to 18 hrs by microbroth dilution method; format: functional; settings: time 16-18 hrs
Enterococcus faecium = test: Antibacterial activity against vancomycin-resistant Enterococcus faecium ATCC 51559 assessed as reduction in microbial growth after 16 to 18 hrs by microbroth dilution method; format: functional; settings: time 16-18 hrs
Escherichia coli [23] = test: Antibacterial activity against Escherichia coli ATCC 25922 assessed as blockage of folate pathway after 16 to 18 hrs in presence of thymine by microbroth dilution method; format: functional; settings: time 16-18 hrs
Escherichia coli [24] = test: Antibacterial activity against Escherichia coli ATCC 25922 assessed as blockage of folate pathway after 16 to 18 hrs in presence of thymine by measuring fold increase in MIC by microbroth dilution method; format: functional; settings: time 16-18 hrs
[25] = Binding affinity to Escherichia coli C-terminal hexahistidine tagged DHFR assessed as dissociation constant by isothermal titration calorimetry method
Escherichia coli [26] = test: Bactericidal activity against Escherichia coli ATCC 25922 assessed as suppression of regrowth of colonies at 4 to 8 times MIC measured for 24 hrs by time-kill assay; format: functional, organism-based
Escherichia coli [27] = test: Antibacterial activity against Escherichia coli ATCC 25922 overexpressing DHFR assessed as reduction in microbial growth after 16 to 18 hrs by microbroth dilution method; format: functional; settings: time 16-18 hrs
Klebsiella pneumoniae [28] = test: Bactericidal activity against Klebsiella pneumoniae CCPM(A)-081514 at 0.5 ug/ml measured for 24 hrs in presence of SMZ by time-kill assay; format: functional, organism-based; settings: dose 0.5 µg/ml
Klebsiella pneumoniae [29] = test: Antibacterial activity against ESBL-producing Klebsiella pneumoniae CCPM(A)-081514 assessed as reduction in microbial growth after 16 to 18 hrs by microbroth dilution method; format: functional; settings: time 16-18 hrs
[30] = Inhibition of Escherichia coli C-terminal hexahistidine tagged DHFR incubated for 5 mins in presence of NADPH by measuring oxidation of NADPH to NADP+
Escherichia coli [31] = test: Potency index ratio of IC50 for TMP to IC50 for test compound for inhibition of Escherichia coli C-terminal hexahistidine tagged DHFR
Escherichia coli [32] = test: Antibacterial activity against Escherichia coli CCPM(A)-0715118 assessed as reduction in microbial growth after 16 to 18 hrs by microbroth dilution method; format: functional; settings: time 16-18 hrs
Escherichia coli [33] = test: Binding affinity to Escherichia coli C-terminal hexahistidine tagged DHFR assessed as change in gibbs free energy at 0.2 mM by isothermal titration calorimetry method
[34] = biological target: Thymidylate synthase (Escherichia coli K-12) (UniProt P0A884); test: Binding affinity to Escherichia coli N-terminal hexahistidine tagged TS assessed as change in entropy at 0.2 mM by isothermal titration calorimetry method
Escherichia coli [35] = test: Antibacterial activity against ESBL-producing Escherichia coli CCPM(A)-0715117 assessed as reduction in microbial growth after 16 to 18 hrs by microbroth dilution method; format: functional; settings: time 16-18 hrs
Staphylococcus aureus [36] = test: Antibacterial activity against Staphylococcus aureus ATCC 29213 assessed as reduction in microbial growth after 16 to 18 hrs by microbroth dilution method; format: functional; settings: time 16-18 hrs
Escherichia coli [37] = test: Binding affinity to Escherichia coli C-terminal hexahistidine tagged DHFR assessed as change in enthalpy at 0.2 mM by isothermal titration calorimetry method
Escherichia coli [38] = test: In vivo Antibacterial activity against Escherichia coli ATCC 25922 in septicemia ICR mouse model assessed as increase in mouse survival rate administered iv measured […]; format: functional, organism-based; settings: dose 7.5-15 mg/kg, DDE = dose-dependent effect
[39] = biological target: Thymidylate synthase (Escherichia coli K-12) (UniProt P0A884); test: Binding affinity to Escherichia coli […] hexahistidine-tagged TS at 20 uM by biolayer interferometry assay
Escherichia coli [40] = test: In vivo Antibacterial activity against Escherichia coli ATCC 25922 in septicemia ICR mouse model assessed as increase in mouse survival time at 15 mg/kg,iv measured after 14 hrs; format: functional
Klebsiella pneumoniae [41] = test: Synergistic antibacterial activity against Klebsiella pneumoniae CCPM(A)-081514 assessed as fractional inhibitory concentration index at 0.5 ug/ml measured for 24 hrs in presence of SMZ by microdilution checkerboard assay; format: functional; settings: dose 0.5 µg/ml
Klebsiella pneumoniae [42] = test: Antibacterial activity against ESBL-producing Klebsiella pneumoniae CCPM(A)-081568 assessed as reduction in microbial growth after 16 to 18 hrs by microbroth dilution method; format: functional; settings: time 16-18 hrs
Acinetobacter baumannii [43] = test: Antibacterial activity against Acinetobacter baumannii CCPM(A)-100947 assessed as reduction in microbial growth after 16 to 18 hrs by microbroth dilution method; format: functional; settings: time 16-18 hrs
Escherichia coli [44] = test: Bactericidal activity against Escherichia coli ATCC 25922 at 0.5 to 8 times MIC by counting bacterial colonies time-kill assay; format: functional, organism-based; settings: time <= 24.0 hrs, TDE = time-dependent effect

Thymidylate synthase (Escherichia coli K-12), sequence (P0A884 whole entry, looked up): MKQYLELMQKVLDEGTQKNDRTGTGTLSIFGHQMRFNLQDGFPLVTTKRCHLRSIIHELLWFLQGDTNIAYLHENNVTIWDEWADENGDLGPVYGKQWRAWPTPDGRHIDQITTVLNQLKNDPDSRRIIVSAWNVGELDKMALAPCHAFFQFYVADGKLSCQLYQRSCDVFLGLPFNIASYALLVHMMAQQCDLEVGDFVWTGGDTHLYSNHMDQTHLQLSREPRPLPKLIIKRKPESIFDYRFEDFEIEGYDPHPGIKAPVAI
Thymidylate synthase, sequence (P0A884 whole entry): as the sequence (P0A884 whole entry, looked up) above

SMILES: Nc1nc(N)c2c(ccc3c2ccn3Cc2cccc(C(=O)N3CCOCC3)c2)n1
MIC (Acinetobacter baumannii [1]): 512 µg/mL | MIC (Escherichia coli [2]): 16 µg/mL | inhibition (Escherichia coli [3]): 100% | MIC (Klebsiella pneumoniae [4]): 128 µg/mL

SMILES: COc1ccc(Cn2ccc3c4c(N)nc(N)nc4ccc32)cc1
MIC (Acinetobacter baumannii [1]): 2 µg/mL | MIC (Escherichia coli [2]): 0.002 µg/mL | inhibition (Escherichia coli [3]): 68.1% | MIC (Klebsiella pneumoniae [4]): 0.25 µg/mL

SMILES: Nc1nc(N)c2c(ccc3c2ccn3Cc2ccccc2F)n1
Activity (Escherichia coli [5]): Active | pIC50 (Thymidylate synthase): 4.95 | MIC (Acinetobacter baumannii [1]): 1 µg/mL | Activity (Escherichia coli [6]): 100 CFU/ml | MIC (Klebsiella pneumoniae [7]): 16 µg/mL | MIC (Escherichia coli [8]): 0.06 µg/mL | fractional inhibitory concentration index (FICI) (Escherichia coli [9]): 0.02 | MIC (Escherichia coli [2]): 0.002 µg/mL | MIC (Acinetobacter baumannii [10]): 0.06 µg/mL | Activity (Escherichia coli [11]): 3 log10CFU/ml | inhibition (Escherichia coli [3]): 76.2% | MIC (Acinetobacter baumannii [12]): 0.03 µg/mL | Activity (Escherichia coli [13]): Dde | TdeltaS (Escherichia coli [14]): -19.4 kcal/mol | Activity (Escherichia coli [15]): Dde | inhibition [16]: 50% | MIC (Klebsiella pneumoniae [4]): 1 µg/mL | MIC (Klebsiella pneumoniae [17]): 1 µg/mL | MIC (Acinetobacter baumannii [18]): 8 µg/mL | MIC (Escherichia coli [19]): 0.002 µg/mL | MIC (Staphylococcus aureus [20]): 0.5 µg/mL | deltaG [21]: -5.82 kcal/mol | MIC (Acinetobacter baumannii [22]): 8 µg/mL | MIC (Enterococcus faecium): 0.03 µg/mL | MIC (Escherichia coli [23]): 8 µg/mL | fold change (FC) (Escherichia coli [24]): 4000 | pKd [25]: 8.80 | Activity (Escherichia coli [26]): Active | MIC (Escherichia coli [27]): 8 µg/mL | Activity (Klebsiella pneumoniae [28]): Active | MIC (Klebsiella pneumoniae [29]): 2 µg/mL | pIC50 [30]: 8.63 | Ratio IC50 (Escherichia coli [31]): 20 | MIC (Escherichia coli [32]): 16 µg/mL | deltaG (Escherichia coli [33]): -9.14 kcal/mol | TdeltaS [34]: -20.9 kcal/mol | MIC (Escherichia coli [35]): 0.002 µg/mL | MIC (Staphylococcus aureus [36]): 0.03 µg/mL | deltaH (Escherichia coli [37]): -20.4 kcal/mol | Activity (Escherichia coli [38]): Dde | Activity [39]: Active | Activity (Escherichia coli [40]): 50% | fractional inhibitory concentration index (FICI) (Klebsiella pneumoniae [41]): 0.07 | MIC (Klebsiella pneumoniae [42]): 0.03 µg/mL | MIC (Acinetobacter baumannii [43]): 0.125 µg/mL | Activity (Escherichia coli [44]): Tde

The next lines start with the values.

MIC (Acinetobacter baumannii [1]): 128 µg/mL | MIC (Escherichia coli [2]): 8 µg/mL | inhibition (Escherichia coli [3]): 80.3% | MIC (Klebsiella pneumoniae [4]): 32 µg/mL
SMILES: Nc1nc(N)c2c(ccc3c2ccn3Cc2ccc(C(=O)N3CCOCC3)cc2)n1

MIC (Acinetobacter baumannii [1]): 0.06 µg/mL | MIC (Escherichia coli [2]): 0.002 µg/mL | inhibition (Escherichia coli [3]): 78.9% | MIC (Klebsiella pneumoniae [4]): 0.25 µg/mL
SMILES: Nc1nc(N)c2c(ccc3c2ccn3Cc2ccc(F)cc2)n1

MIC (Acinetobacter baumannii [1]): 4 µg/mL | MIC (Escherichia coli [2]): 0.25 µg/mL | inhibition (Escherichia coli [3]): 20.9% | MIC (Klebsiella pneumoniae [4]): 0.5 µg/mL
SMILES: Nc1nc(N)c2c(ccc3c2ccn3CC2CC2)n1
